Experimental data as given in ChEMBL document CHEMBL4257529, “Antifungal amphiphilic kanamycins: new life for an old drug” (Medchemcomm, 2018).

Columns and labels:
Format in all cases: functional
Fusarium graminearum [1] = assay: Antifungal activity against Fusarium graminearum infected in wheat plant assessed as fusarium head blight incidence at 0.512 L/ha (reference value: 70%)
Fusarium graminearum [2] = assay: Antifungal activity against Fusarium graminearum infected in wheat plant assessed as fusarium head blight incidence at 1.02 L/ha (reference value: 70%)
Fusarium graminearum [3] = assay: Antifungal activity against Fusarium graminearum infected in wheat plant assessed as fusarium head blight severity at 1.02 L/ha (reference value: 75%)
Fusarium graminearum [4] = assay: Antifungal activity against Fusarium graminearum infected in wheat plant assessed as fusarium head blight index at 1.02 L/ha (reference value: 53%)
Fusarium graminearum [5] = assay: Antifungal activity against Fusarium graminearum infected in wheat plant assessed as fusarium head blight severity at 0.512 L/ha (reference value: 75%)
Fusarium graminearum [6] = assay: Antifungal activity against Fusarium graminearum infected in wheat plant assessed as fusarium head blight index at 0.512 L/ha (reference value: 53%)

## CC1(C)CCC(Cc2ccc(Cl)cc2)C1(O)Cn1cncn1 (stereo unspecified) [METCONAZOLE]
Fusarium graminearum [1]
  Activity: 13%
Fusarium graminearum [2]
  Activity: 12%
Fusarium graminearum [3]
  Activity: 58%
Fusarium graminearum [4]
  Activity_index: 7%
Fusarium graminearum [5]
  Activity: 69%
Fusarium graminearum [6]
  Activity_index: 9%
